Measured values published in patent US10450260B2, “NO- and H2S-releasing compounds” (RESEARCH FOUNDATION OF THE CITY UNIVERSITY OF NEW YORK, priority 2011, dated 2019).
Read-outs that look alike come from different tables or passages of the source. Values belong to the molecule of their own block, whether it stands above or below them.

What was measured:
[1] = target: T1, ovine COX-2 (Ovis aries, UniProt P79208); test: COX-2 enzyme activity, colorimetric inhibitor screening kit; assay type: biochemical; settings: for inhibition at 3000 µM: read-out: COX-2-% Inhibition, 3 mM (Table 8)
T1 construct: purchased Cayman Chemicals (Ann Arbor, Mich.)
T1 sequence (P79208 17-603): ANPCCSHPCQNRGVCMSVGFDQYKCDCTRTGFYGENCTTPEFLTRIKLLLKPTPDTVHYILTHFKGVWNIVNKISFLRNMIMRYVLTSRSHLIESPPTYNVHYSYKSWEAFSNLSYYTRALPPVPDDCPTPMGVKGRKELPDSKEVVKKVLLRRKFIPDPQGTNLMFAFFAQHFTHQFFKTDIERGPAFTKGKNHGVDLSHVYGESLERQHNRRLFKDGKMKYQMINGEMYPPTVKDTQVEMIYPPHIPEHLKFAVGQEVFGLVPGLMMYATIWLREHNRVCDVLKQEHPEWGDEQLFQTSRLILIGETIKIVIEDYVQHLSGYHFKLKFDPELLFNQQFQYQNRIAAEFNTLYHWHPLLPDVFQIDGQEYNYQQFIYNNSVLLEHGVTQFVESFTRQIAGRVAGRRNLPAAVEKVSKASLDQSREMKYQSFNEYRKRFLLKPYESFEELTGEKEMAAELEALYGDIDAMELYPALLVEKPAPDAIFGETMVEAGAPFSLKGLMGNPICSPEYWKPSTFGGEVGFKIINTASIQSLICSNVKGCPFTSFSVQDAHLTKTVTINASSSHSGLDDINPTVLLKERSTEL

[2] = tested on: MDA-MB 231 human breast cancer; test: MTT cell growth inhibition, MDA MB231; assay type: cell-based; settings: for IC50: Homo sapiens, MDA-MB-231; for Ratio NSAID/NOSH-NSAID, MDA MB231: fold-enhancement in potency over the parent compound
Method: (§1) HT-29, SW-480 and HCT-15 human colon adenocarcinoma, MIA PaCa-2 and BxPC-3 human pancreatic cancer, LNCAP human prostate cancer, A549 human lung cancer, MCF-7 (estrogen receptor positive), MDA-MB 231 and SK-BR-3 (estrogen receptor negative) human breast cancer, and Jurkats human leukemia cell lines were obtained from American Type Tissue Collection (Manassas, Va.). All cells lines were grown as monolayers except for the Jurkats which were grown in suspension. The pancreatic and breast cancer cells were grown in Dulbecco's modified Eagle's medium, the prostate, Jurkat, SW-480 and HCT-15 colon cells were grown in RPMI 1640 medium, the lung cells were grown in F-12 and the colon HT-29 cells were grown in McCoy 5A. All media were supplemented with 10% fetal calf serum (Invitrogen, Carlsbad, Calif.) penicillin (50 U/ml), and streptomycin (50 μg/ml) (Invitrogen, Carlsbad, Calif.). Cells were seeded on culture dishes at a density of 25×10^3 cells/cm^2 and incubated at 37° C. in 5% CO2 and 90% relative humidity. Single cell suspensions were obtained by trypsinization (0.05% trypsin/EDTA), and cells were counted using a hemocytometer. Viability was determined by the trypan blue dye exclusion method.
(§2) Cell growth inhibitory effect of NOSH compounds were measured using a colorimetric MTT assay kit (Roche, Indianapolis, Ind.). Cancer cells were plated in 96-well plates at a density of 50,000 cells/well. The cells were incubated for 24 h with different concentrations of NOSH compounds. After the indicated time, 10 μl of MTT dye (3-[4,5-dimethylthiazol-2-yl]-2,5-diphenyl tetrazolium bromide, 5 mg/ml in phosphate buffered saline), was added to each well, and the plates were incubated for 2 hours at 37° C. Then, the media was aspirated, and add 100 μl of the solubilization solution (10% SDS in 0.01 M HCl) was added to each well to solubilize the formant crystals. The absorbance of the plates was measured on an ELISA reader at a wavelength of 570 nm. Each sample was performed in triplicate, and the entire experiment was repeated three times.
(§3) HT-29, SW-480 and HCT-15 human colon adenocarcinoma, MIA PaCa-2 and BxPC-3 human pancreatic cancer, LNCAP human prostate cancer, A549 and H383 human lung cancer, MCF-7, MDA-MB 231 and SK-BR-3 human breast cancer and Jurkat T cell human leukemia cell lines were obtained from American Type Tissue Collection (Manassas, Va.) All cells lines were grown as monolayers except for the Jurkat T cells which were grown as suspension culture. The pancreatic and breast cancer cells were grown in Dulbecco's modified Eagle's medium, the prostate, Jurkat, SW-480 and HCT-15 colon cells were grown in RPMI 1640 medium, the lung cells were grown in F-12 and the colon HT-29 cells were grown in McCoy 5A. All media were supplemented with 10% fetal calf serum (Invitrogen, Carlsbad, Calif.) penicillin (50 U/ml), and streptomycin (50 μg/ml) (Invitrogen, Carlsbad, Calif.). Cells were seeded on culture dishes at a density of 25×10^3 cells/cm^2 and incubated at 37° C. in 5% CO2 and 90% relative humidity. Single cell suspensions were obtained by trypsinization (0.05% trypsin/EDTA), and cells were counted using a hemacytometer. The final DMSO concentration was adjusted in all media to 1%. Viability was determined by the trypan blue dye exclusion method.
(§4) Cell growth inhibitory effect of all NOSH-NSAIDs was measured using a colorimetric MTT assay kit (Roche, Indianapolis, Ind.). Cancer cells were plated in 96-well plates at a density of 30,000-50,000 cells/well depending on cell type. The cells were incubated for 24 hours with different concentrations of NOSH-NSAIDs. After the indicated time, 10 μL of MTT dye (3-[4,5-dimethylthiazol-2-yl]-2,5-diphenyl tetrazolium bromide, 5 mg/mL in phosphate buffered saline), was added to each well, and the plates were incubated for 2 hours at 37° C. Then, the media was aspirated, and 100 μL of the solubilization solution (10% SDS in 0.01 M HCl) was added to each well to solubilize the formant crystals. […]

[3] = tested on: MCF-7 human breast cancer; test: MTT cell growth inhibition, MCF7; assay type: cell-based; settings: for IC50: Homo sapiens, MCF7; for Ratio NSAID/NOSH-NSAID, MCF7: fold-enhancement in potency over the parent compound
Method: as §1, §2, §3, §4

[4] = tested on: BxPC-3 human pancreatic cancer; test: MTT cell growth inhibition, BxPC3; assay type: cell-based; settings: for IC50: Homo sapiens, BXPC-3, read-out: IC50 for cell growth inhibition, Pancreas BxPC3; for Ratio NSAID/NOSH-NSAID, BxPC3: fold-enhancement in potency over the parent compound
Method: as §1, §2, §3, §4

SMILES: CC(=O)Oc1ccccc1C(=O)O [ASA, aspirin, reference compound]
- COX-2-% Inhibition ([1]; 1 mM, 15 min at 4° C. (Table 8)): 70.2%
- inhibition at 1000 µM ([1]; read-out: COX-2 % Inhibition, 1 mM (Table 6)): 50.6 ± 1.1%
- inhibition at 1000 µM ([1]; read-out: COX-2-% Inhibition, 1 mM, 15 min at 4° C. (Table 8)): 68.4%
- inhibition at 3000 µM [1]: 74.6%

SMILES: O=C(CCCO[N+](=O)[O-])Oc1ccccc1C(=O)Oc1ccc(-c2cc(=S)ss2)cc1 [NOSH-1, 4-(3-thioxo-3H-1,2-dithiol-5-yl)phenyl 2-((4-(nitrooxy)butanoyl)oxy)benzoate]
- IC50 ([2]; 24 hours): 0.1 ± 0.011 µM
- IC50 ([3]; 24 hours): 0.28 ± 0.016 µM
- inhibition at 0.025 µM ([1]; 25 nM (Table 6)): 5.4 ± 0.7%
- inhibition at 0.05 µM ([1]; 50 nM (Table 6)): 14.5 ± 1%
- inhibition at 0.05 µM ([1]; 50 nM (Table 8)): 23.3%
- COX-2-% Inhibition ([1]; 50 nM (Table 8), listed as NOSH-ASA, 0.05 µM): 20.9%
- inhibition at 0.1 µM ([1]; 100 nM (Table 6)): 27.2 ± 0.7%
- inhibition at 0.1 µM ([1]; 100 nM (Table 8)): 29.1%
- IC50 ([4]; 24 hours): 0.057 ± 0.004 µM

- IC50 ([2]; 24 hours): 0.085 ± 0.008 µM
- IC50 ([3]; 24 hours): 0.07 ± 0.005 µM
- IC50 ([4]; 24 hours): 0.1 ± 0.009 µM
SMILES: O=C(CCC(=O)Oc1ccccc1C(=O)Oc1ccc(-c2cc(=S)ss2)cc1)OCCCCO[N+](=O)[O-] [NOSH-2, 4-(nitrooxy)butyl (2-((4-(3-thioxo-3H-1,2-dithiol-5-yl)phenoxy)carbonyl)phenyl) succinate]

- IC50 ([2]; 24 hours): 6 ± 0.22 µM
- IC50 ([3]; 24 hours): 5.7 ± 0.323 µM
- IC50 ([4]; 24 hours): 5.5 ± 0.39 µM
SMILES: NC(=S)c1ccc(OC(=O)c2ccccc2OC(=O)CCCO[N+](=O)[O-])cc1 [NOSH-3, 4-carbamothioylphenyl 2-((4-(nitrooxy)butanoyl)-oxy)benzoate]

- IC50 ([2]; 24 hours): 0.8 ± 0.022 µM
- IC50 ([3]; 24 hours): 0.28 ± 0.015 µM
- IC50 ([4]; 24 hours): 0.7 ± 0.032 µM
SMILES: O=C(CCCC[C@@H]1CCSS1)Oc1ccccc1C(=O)OCCCCO[N+](=O)[O-] [NOSH-4, (R)-4-(nitrooxy)butyl 2-((5-(1,2-dithiolan-3-yl)pentanoyl)oxy)benzoate]

SMILES: CC(C(=O)Oc1ccc(-c2cc(=S)ss2)cc1)c1ccc2cc(OC(=O)CCCO[N+](=O)[O-])ccc2c1 (stereo not drawn) [NOSH-7, 6-(1-oxo-1-(4-(3-thioxo-3H-1,2-dithiol-5-yl)phenoxy)propan-2-yl)naphthalen-2-yl 4-(nitrooxy)butanoate]
- IC50 ([2]; 24 hours (Table 7)): 0.11 µM
- Ratio NSAID/NOSH-NSAID, MDA MB231 [2]: 26,363
- IC50 ([3]; 24 hours (Table 7)): 0.11 µM
- Ratio NSAID/NOSH-NSAID, MCF7 [3]: 21,363
- inhibition at 0.08 µM ([1]; 80 nM (Table 8)): 18.8%
- COX-2-% Inhibition ([1]; 80 nM (Table 8), listed as NOSH-NAPROXEN, 0.08 µM): 15.8%
- inhibition at 0.16 µM ([1]; 160 nM (Table 8)): 11%
- IC50 ([4]; 24 hours (Table 7)): 0.08 µM
- Ratio NSAID/NOSH-NSAID, BxPC3 [4]: 30,625

SMILES: CC1=C(CC(=O)Oc2ccc(OC(=O)CCCO[N+](=O)[O-])c(C(=O)Oc3ccc(-c4cc(=S)ss4)cc3)c2)c2cc(F)ccc2/C1=C/c1ccc([S+](C)[O-])cc1 (stereo not drawn) [NOSH-8, (E)-4-(3-thioxo-3H-1,2-dithiol-5-yl)phenyl 5-(2-(5-fluoro-2-methyl-1-(4-(methylsulfinyl)benzylidene)-1H-inden-3-yl)acetoxy)-2-((4-(nitrooxy)butanoyl)oxy)benzoate]
- IC50 ([2]; 24 hours (Table 7)): 0.098 µM
- Ratio NSAID/NOSH-NSAID, MDA MB231 [2]: 9,540
- IC50 ([3]; 24 hours (Table 7)): 0.11 µM
- Ratio NSAID/NOSH-NSAID, MCF7 [3]: 8,772
- inhibition at 0.089 µM ([1]; 89 nM (Table 8)): 13.6%
- COX-2-% Inhibition ([1]; 89 nM (Table 8), listed as NOSH-SULINDAC, 0.089 µM): 12.3%
- IC50 ([4]; 24 hours (Table 7)): 0.11 µM
- Ratio NSAID/NOSH-NSAID, BxPC3 [4]: 8,818

SMILES: COc1ccc2cc([C@H](C)C(=O)O)ccc2c1 [naproxen, reference compound]
- IC50 ([2]; 24 hours (Table 7)): 2900 µM
- IC50 ([3]; 24 hours (Table 7)): 2350 µM
- COX-2-% Inhibition ([1]; 3 mM (Table 8)): 70.2%
- inhibition at 3000 µM [1]: 68.6%
- inhibition at 6000 µM ([1]; read-out: COX-2-% Inhibition, 6 mM (Table 8)): 74.6%
- IC50 ([4]; 24 hours (Table 7)): 2450 µM

- IC50 ([2]; 24 hours (Table 7)): 935 µM
- IC50 ([3]; 24 hours (Table 7)): 965 µM
- inhibition at 800 µM ([1]; 800 μM (Table 8)): 66.8%
- COX-2-% Inhibition ([1]; 800 μM (Table 8), 800 µM): 68.5%
- inhibition at 1600 µM ([1]; 1600 μM (Table 8)): 71.1%
- IC50 ([4]; 24 hours (Table 7)): 970 µM
SMILES: CC1=C(CC(=O)O)c2cc(F)ccc2/C1=C\c1ccc([S+](C)[O-])cc1 (stereo not drawn) [sulindac, reference compound]
